Measured values as given in PubChem BioAssay AID1963985 (Molecular Pharmacology Branch, DTP, NCI, 2024).
Blank lines part the entries; values can stand above or below the compound they belong to.

Tested on: 252836-082-R-J2-PDC tumor spheroids, viability
Test: Anticancer human tumor 252836-082-R-J2-PDC patient-derived head and neck squamous cell carcinoma cell line growth inhibition [PI3K]
Conditions: spheroids with HUVEC and MSC; for IC50: curve of first compound; for viability, T/C: stronger effect = lower value
Outline: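 Agents were dosed from a top concentration near clinical Cmax (otherwise 10 microM) in half-log decrements, alone or combined with PI3K inhibitors. The spheroids contain tumor cells plus endothelial (HUVEC) and MSC stroma; viability is measured.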

[1] = second compound 0.00316 µM, first compound 0.0316 µM
[2] = second compound 0.00316 µM, first compound 0.1 µM
[3] = second compound 0.00316 µM, first compound 0.316 µM
[4] = second compound 0.00316 µM, first compound 1 µM
[5] = second compound 0.00316 µM, first compound 3.16 µM
[6] = second compound 0.00316 µM, first compound 10 µM
[7] = second compound 0.01 µM, first compound 0.0316 µM
[8] = second compound 0.01 µM, first compound 0.1 µM
[9] = second compound 0.01 µM, first compound 0.316 µM
[10] = second compound 0.01 µM, first compound 1 µM
[11] = second compound 0.01 µM, first compound 3.16 µM
[12] = second compound 0.01 µM, first compound 10 µM
[13] = second compound 0.0316 µM, first compound 0.0316 µM
[14] = second compound 0.0316 µM, first compound 0.1 µM
[15] = second compound 0.0316 µM, first compound 0.316 µM
[16] = second compound 0.0316 µM, first compound 1 µM
[17] = second compound 0.0316 µM, first compound 3.16 µM
[18] = second compound 0.0316 µM, first compound 10 µM
[19] = second compound 0.1 µM, first compound 0.0316 µM
[20] = second compound 0.1 µM, first compound 0.1 µM
[21] = second compound 0.1 µM, first compound 0.316 µM
[22] = second compound 0.1 µM, first compound 1 µM
[23] = second compound 0.1 µM, first compound 3.16 µM
[24] = second compound 0.1 µM, first compound 10 µM
[25] = second compound 0.316 µM, first compound 0.0316 µM
[26] = second compound 0.316 µM, first compound 0.1 µM
[27] = second compound 0.316 µM, first compound 0.316 µM
[28] = second compound 0.316 µM, first compound 1 µM
[29] = second compound 0.316 µM, first compound 3.16 µM
[30] = second compound 0.316 µM, first compound 10 µM
[31] = second compound 1 µM, first compound 0.0316 µM
[32] = second compound 1 µM, first compound 0.1 µM
[33] = second compound 1 µM, first compound 0.316 µM
[34] = second compound 1 µM, first compound 1 µM
[35] = second compound 1 µM, first compound 3.16 µM
[36] = second compound 1 µM, first compound 10 µM
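Note: spheroids exposed to agents for seven days before readout.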
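Throughout, for viability, T/C: percent of vehicle DMSO control viability so 100% = untreated growth.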

IC50 (second compound 0.00316 µM): 1040 nM
IC50 (second compound 0.01 µM): 566 nM
IC50 (second compound 0.0316 µM): 285 nM
IC50 (second compound 0.1 µM): < 31.6 nM
IC50 (second compound 0.316 µM): < 31.6 nM
IC50 (second compound 1 µM): < 31.6 nM
SMILES: CC(C)NCC(C(=O)N1CCN(c2ncnc3c2C(C)CC3O)CC1)c1ccc(Cl)cc1 (stereo not drawn) + COc1c(OCCCN2CCOCC2)ccc2c3n(c(=NC(=O)c4cnc(N)nc4)nc12)CCN3
viability, T/C [1]: 82.9%
viability, T/C [2]: 77.9%
viability, T/C [3]: 64.8%
viability, T/C [4]: 50.6%
viability, T/C [5]: 34.6%
viability, T/C [6]: 20.3%
viability, T/C [7]: 71.2%
viability, T/C [8]: 64.3%
viability, T/C [9]: 59.7%
viability, T/C [10]: 41.3%
viability, T/C [11]: 26.4%
viability, T/C [12]: 15.4%
viability, T/C [13]: 56.2%
viability, T/C [14]: 56.4%
viability, T/C [15]: 47.2%
viability, T/C [16]: 40%
viability, T/C [17]: 21.9%
viability, T/C [18]: 11.6%
viability, T/C [19]: 36.6%
viability, T/C [20]: 30.3%
viability, T/C [21]: 26%
viability, T/C [22]: 24.7%
viability, T/C [23]: 17.1%
viability, T/C [24]: 10.2%
viability, T/C [25]: 14.3%
viability, T/C [26]: 13.8%
viability, T/C [27]: 11.6%
viability, T/C [28]: 12.8%
viability, T/C [29]: 8.52%
viability, T/C [30]: 5.44%
viability, T/C [31]: 4.96%
viability, T/C [32]: 3.28%
viability, T/C [33]: 5.23%
viability, T/C [34]: 4.34%
viability, T/C [35]: 3.37%
viability, T/C [36]: 3.42%

IC50 (second compound 0.00316 µM): > 1000 nM
IC50 (second compound 0.01 µM): > 1000 nM
IC50 (second compound 0.0316 µM): > 1000 nM
IC50 (second compound 0.1 µM): < 3.16 nM
IC50 (second compound 0.316 µM): < 3.16 nM
IC50 (second compound 1 µM): < 3.16 nM
SMILES: CCN1CCN(Cc2ccc(Nc3ncc(F)c(-c4cc(F)c5nc(C)n(C(C)C)c5c4)n3)nc2)CC1 + COc1c(OCCCN2CCOCC2)ccc2c3n(c(=NC(=O)c4cnc(N)nc4)nc12)CCN3
viability, T/C (second compound 0.00316 µM, first compound 0.00316 µM): 86.4%
viability, T/C (second compound 0.00316 µM, first compound 0.01 µM): 80.1%
viability, T/C [1]: 97.1%
viability, T/C [2]: 85.4%
viability, T/C [3]: 91.6%
viability, T/C [4]: 82.6%
viability, T/C (second compound 0.01 µM, first compound 0.00316 µM): 75.8%
viability, T/C (second compound 0.01 µM, first compound 0.01 µM): 75.2%
viability, T/C [7]: 82.5%
viability, T/C [8]: 80.8%
viability, T/C [9]: 72.6%
viability, T/C [10]: 78%
viability, T/C (second compound 0.0316 µM, first compound 0.00316 µM): 56.2%
viability, T/C (second compound 0.0316 µM, first compound 0.01 µM): 59%
viability, T/C [13]: 55.4%
viability, T/C [14]: 57%
viability, T/C [15]: 55.5%
viability, T/C [16]: 47%
viability, T/C (second compound 0.1 µM, first compound 0.00316 µM): 34.6%
viability, T/C (second compound 0.1 µM, first compound 0.01 µM): 34.9%
viability, T/C [19]: 31.2%
viability, T/C [20]: 29.7%
viability, T/C [21]: 33.9%
viability, T/C [22]: 32.4%
viability, T/C (second compound 0.316 µM, first compound 0.00316 µM): 14.1%
viability, T/C (second compound 0.316 µM, first compound 0.01 µM): 15.2%
viability, T/C [25]: 12.4%
viability, T/C [26]: 13.1%
viability, T/C [27]: 17.7%
viability, T/C [28]: 14.9%
viability, T/C (second compound 1 µM, first compound 0.00316 µM): 4.92%
viability, T/C (second compound 1 µM, first compound 0.01 µM): 3.69%
viability, T/C [31]: 3.43%
viability, T/C [32]: 4.13%
viability, T/C [33]: 5.78%
viability, T/C [34]: 8.31%

IC50 (second compound 0.00316 µM): 781 nM
IC50 (second compound 0.01 µM): 416 nM
IC50 (second compound 0.0316 µM): 376 nM
IC50 (second compound 0.1 µM): < 31.6 nM
IC50 (second compound 0.316 µM): < 31.6 nM
IC50 (second compound 1 µM): < 31.6 nM
SMILES: Cn1ncc(Cl)c1-c1cc(C(=O)NC(CN)Cc2cccc(F)c2)sc1Cl (stereo not drawn) + COc1c(OCCCN2CCOCC2)ccc2c3n(c(=NC(=O)c4cnc(N)nc4)nc12)CCN3
viability, T/C [1]: 88.6%
viability, T/C [2]: 79.1%
viability, T/C [3]: 60.2%
viability, T/C [4]: 45.7%
viability, T/C [5]: 32.3%
viability, T/C [6]: 11.2%
viability, T/C [7]: 71.8%
viability, T/C [8]: 67.8%
viability, T/C [9]: 50.6%
viability, T/C [10]: 40.1%
viability, T/C [11]: 29%
viability, T/C [12]: 18.4%
viability, T/C [13]: 59.1%
viability, T/C [14]: 68.6%
viability, T/C [15]: 50%
viability, T/C [16]: 34.5%
viability, T/C [17]: 23.1%
viability, T/C [18]: 11.7%
viability, T/C [19]: 40.8%
viability, T/C [20]: 36.4%
viability, T/C [21]: 37%
viability, T/C [22]: 26.4%
viability, T/C [23]: 17.2%
viability, T/C [24]: 9.98%
viability, T/C [25]: 21.1%
viability, T/C [26]: 13.9%
viability, T/C [27]: 14.8%
viability, T/C [28]: 14.2%
viability, T/C [29]: 13%
viability, T/C [30]: 7.08%
viability, T/C [31]: 4.42%
viability, T/C [32]: 4.98%
viability, T/C [33]: 4.84%
viability, T/C [34]: 6.71%
viability, T/C [35]: 4.88%
viability, T/C [36]: 1.6%

IC50 (second compound 0.00316 µM): > 10000 nM
IC50 (second compound 0.01 µM): > 10000 nM
IC50 (second compound 0.0316 µM): 4370 nM
IC50 (second compound 0.1 µM): < 31.6 nM
IC50 (second compound 0.316 µM): < 31.6 nM
IC50 (second compound 1 µM): < 31.6 nM
SMILES: Cn1nccc1Nc1nccc(-c2ccn(C(CO)c3ccc(Cl)c(F)c3)c(=O)c2)n1 (stereo not drawn) + COc1c(OCCCN2CCOCC2)ccc2c3n(c(=NC(=O)c4cnc(N)nc4)nc12)CCN3
viability, T/C [1]: 99.2%
viability, T/C [2]: 86.3%
viability, T/C [3]: 98%
viability, T/C [4]: 90%
viability, T/C [5]: 78.3%
viability, T/C [6]: 70.3%
viability, T/C [7]: 77.4%
viability, T/C [8]: 78.3%
viability, T/C [9]: 81.7%
viability, T/C [10]: 79.1%
viability, T/C [11]: 75.8%
viability, T/C [12]: 50.2%
viability, T/C [13]: 53%
viability, T/C [14]: 65.4%
viability, T/C [15]: 56.3%
viability, T/C [16]: 56.8%
viability, T/C [17]: 57.8%
viability, T/C [18]: 31.1%
viability, T/C [19]: 40.4%
viability, T/C [20]: 33.8%
viability, T/C [21]: 38.5%
viability, T/C [22]: 34.8%
viability, T/C [23]: 31.9%
viability, T/C [24]: 19.5%
viability, T/C [25]: 15.8%
viability, T/C [26]: 14.1%
viability, T/C [27]: 15.3%
viability, T/C [28]: 10.4%
viability, T/C [29]: 7.12%
viability, T/C [30]: 4.49%
viability, T/C [31]: 4.18%
viability, T/C [32]: 4.13%
viability, T/C [33]: 3.93%
viability, T/C [34]: 1.52%
viability, T/C [35]: 1.98%
viability, T/C [36]: 0.32%
